Results as given in US20160272617A1, “SUBSTITUTED PHENYLALANINE DERIVATIVES” (BAYER PHARMA AKTIENGESELLSCHAFT, priority 2013, published 2016).
Structures can show the parent of a compound that is named as a salt.

Key:
human factor XIa = biological target: T1, human factor XIa (Homo sapiens, UniProt P03951); experiment: Measurement of FXIa inhibition (fluorogenic peptide substrate Boc-Glu(OBzl)-Ala-Arg-AMC); assay type: biochemical; details: factor XIa from Kordia, 15 min preincubation, 30 min at 22° C., fluorescence
T1 construct: purchased Kordia
Method in brief: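 Released AMC fluorescence (360/460 nm) read after 30 min at 22 °C. The reaction was started with Boc-Glu(OBzl)-Ala-Arg-AMC (10 μM stock) after a 15 min preincubation of the enzyme (0.45 nM stock) with compound (final 50 μM to 0.00013 μM).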

human and animal plasma = experiment: Determination of anticoagulatory activity: activated partial thromboplastin time (aPTT) in plasma; details: concentration of test substance which brings about a 1.5-fold extension of the aPTT; plasma species not given
Method in brief: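 Citrated plasma (1:9, 0.11 M citrate; 4000 g, 15 min) from human or animal blood incubated with test compound and cephalin/kaolin PTT reagent for 3 min at 37° C.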

T1 sequence (P03951 388-625 limits assumed): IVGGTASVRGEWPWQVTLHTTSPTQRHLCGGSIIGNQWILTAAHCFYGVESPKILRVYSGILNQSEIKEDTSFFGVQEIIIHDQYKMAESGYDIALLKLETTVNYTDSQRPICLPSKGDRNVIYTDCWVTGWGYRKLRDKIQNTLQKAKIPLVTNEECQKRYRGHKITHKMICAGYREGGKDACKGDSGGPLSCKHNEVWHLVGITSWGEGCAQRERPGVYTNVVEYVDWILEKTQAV
T1 sequence (P03951 19-387 partner limits assumed): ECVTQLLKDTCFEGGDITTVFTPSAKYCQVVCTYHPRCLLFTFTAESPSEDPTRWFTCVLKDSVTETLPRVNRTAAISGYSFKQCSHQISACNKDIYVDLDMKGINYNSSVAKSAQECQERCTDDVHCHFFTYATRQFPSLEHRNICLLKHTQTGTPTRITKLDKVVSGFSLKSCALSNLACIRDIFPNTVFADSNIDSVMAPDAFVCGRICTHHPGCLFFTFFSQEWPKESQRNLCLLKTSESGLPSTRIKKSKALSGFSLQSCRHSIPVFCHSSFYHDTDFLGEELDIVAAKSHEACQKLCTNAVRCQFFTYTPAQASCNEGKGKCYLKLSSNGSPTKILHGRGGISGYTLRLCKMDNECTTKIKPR

| SMILES | IC50 (human factor XIa) [nM] | aPTT (human and animal plasma) [µmol/L] |
| --- | --- | --- |
| Cc1nnc(-c2ccc(NC(=O)[C@H](Cc3ccc(-c4ccc(C(=O)NC5CCNCC5)cc4C)cc3)NC(=O)[C@H]3CC[C@H](CN)CC3)cc2)[nH]1 [Example 56, 4′-[(2S)-2-({[trans-4-(Aminomethyl)cyclohexyl]carbonyl}amino)-3-{[4-(3-methyl-4H-1,2,4-triazol-5-yl)phenyl]amino}-3-oxopropyl]-2-methyl-N-(piperidin-4-yl)biphenyl-4-carboxamide hydrochloride] | 48 | 0.44 |
| CCN(CC)C1CCC(NC(=O)c2ccc(-c3ccc(C[C@H](NC(=O)[C@H]4CC[C@H](CN)CC4)C(=O)Nc4ccc5c(Cl)n[nH]c5c4)cc3)c(C)c2)CC1 (stereo partly drawn) [Example 94, 4′-{(2S)-2-({[trans-4-(Aminomethyl)cyclohexyl]carbonyl}amino)-3-[(3-chloro-1H-indazol-6-yl)amino]-3-oxopropyl}-N-[4-(diethylamino)cyclohexyl]-2-methylbiphenyl-4-carboxamide hydrochloride] | 9.2 | 0.23 |
| NC[C@H]1CC[C@H](C(=O)N[C@@H](Cc2ccc(-c3ccc(C(=O)N[C@H]4CC[C@H](O)CC4)c(F)c3)cc2)C(=O)Nc2ccc(-c3n[nH]c(C(F)(F)C(F)(F)C(=O)O)n3)cc2)CC1 [Example 112, 3-[3-(4-{[(2S)-2-({[trans-4-(Aminomethyl)cyclohexyl]carbonyl}amino)-3-{3′-fluoro-4′-[(trans-4-hydroxycyclohexyl)carbamoyl]biphenyl-4-yl}propanoyl]amino}phenyl)-1H-1,2,4-triazol-5-yl]-2,2,3,3-tetrafluoropropanoic acid hydrochloride] | 2 | 0.17 |
| Cc1cc(C(=O)NC2CCNCC2)ccc1-c1ccc(C[C@H](NC(=O)[C@H]2CC[C@H](CN)CC2)C(=O)Nc2ccc3nc(C(F)(F)F)[nH]c3c2)cc1 [Example 52, 4′-[(2S)-2-({[trans-4-(Aminomethyl)cyclohexyl]carbonyl}amino)-3-oxo-3-{[2-(trifluoromethyl)-1H-benzimidazol-6-yl]amino}propyl]-2-methyl-N-(piperidin-4-yl)biphenyl-4-carboxamide hydrochloride] | 14 | 0.2 |
| Cc1cc(C(=O)NCC(=O)N2CCC(N(C)C)CC2)ccc1-c1ccc(C[C@H](NC(=O)[C@H]2CC[C@H](CN)CC2)C(=O)Nc2ccc(-c3nnc(C(F)(F)C(F)(F)C(=O)O)[nH]3)cc2)cc1 [Example 114, 3-{5-[4-({(2S)-2-({[trans-4-(Aminomethyl)cyclohexyl]carbonyl}amino)-3-[4′-{(2-[4-(dimethylamino)piperidin-1-yl]-2-oxoethyl}carbamoyl)-2′-methylbiphenyl-4-yl]propanoyl}-amino)phenyl]-4H-1,2,4-triazol-3-yl}-2,2,3,3-tetrafluoropropanoic acid hydrochloride] | 2.6 | 0.14 |
| Cc1cc(C(=O)N[C@H]2CCNC2)ccc1-c1ccc(C[C@H](NC(=O)[C@H]2CC[C@H](CN)CC2)C(=O)Nc2ccc(-c3nnc(Cl)[nH]3)cc2)cc1 [Example 83, 4′-[(2S)-2-({[trans-4-(Aminomethyl)cyclohexyl]carbonyl}amino)-3-{[4-(3-chloro-4H-1,2,4-triazol-5-yl)phenyl]amino}-3-oxopropyl]-2-methyl-N-[(3S)-pyrrolidin-3-yl]biphenyl-4-carboxamide hydrochloride] | 2.5 | 0.09 |
| Cc1cc(C(=O)NC2CCC3NCCC32)ccc1-c1ccc(C[C@H](NC(=O)[C@H]2CC[C@H](CN)CC2)C(=O)Nc2ccc(-c3nnc(C(F)(F)C(F)(F)C(=O)O)[nH]3)cc2)cc1 (stereo partly drawn) [Example 115, 3-{5-[4-({(2S)-2-({[trans-4-(Aminomethyl)cyclohexyl]carbonyl}amino)-3-[2′-methyl-4′-(octahydrocyclopenta[b]pyrrol-4-ylcarbamoyl)biphenyl-4-yl]propanoyl}amino)phenyl]-4H-1,2,4-triazol-3-yl}-2,2,3,3-tetrafluoropropanoic acid hydrochloride] | 2.3 | 0.09 |
| Cc1cc(C(=O)NC2CCC(N(C)C)CC2)ccc1-c1ccc(C[C@H](NC(=O)[C@H]2CC[C@H](CN)CC2)C(=O)Nc2ccc(-c3nn[nH]n3)c(F)c2)cc1 (stereo partly drawn) [Example 63, 4′-[(2S)-2-({[trans-4-(Aminomethyl)cyclohexyl]carbonyl}amino)-3-{[3-fluoro-4-(2H-tetrazol-5-yl)phenyl]amino}-3-oxopropyl]-N-[4-(dimethylamino)cyclohexyl]-2-methylbiphenyl-4-carboxamide hydrochloride] | 2.1 | 0.01 |
| Cc1cc(C(=O)NC2CCNCC2)ccc1-c1ccc(C[C@H](NC(=O)[C@H]2CC[C@H](CN)CC2)C(=O)Nc2ccc(-c3nc(C(F)(F)C(F)(F)C(=O)O)n[nH]3)cc2)cc1 [Example 98, 3-{(5-[4-({(2S)-2-({[trans-4-(Aminomethyl)cyclohexyl]carbonyl}amino)-3-[2′-methyl-4′-(piperidin-4-ylcarbamoyl)biphenyl-4-yl]propanoyl}amino)phenyl]-1H-1,2,4-triazol-3-yl}-2,2,3,3-tetrafluoropropanoic acid hydrochloride] | 1 | 0.06 |
| Cc1cc(C(=O)NC2CCNCC2)ccc1-c1ccc(C[C@H](NC(=O)[C@H]2CC[C@H](CN)CC2)C(=O)Nc2ccc(-c3nn[nH]n3)cc2)cc1 [Example 36, 4′-[(2S)-2-({[trans-4-(Aminomethyl)cyclohexyl]carbonyl}amino)-3-oxo-3-{[4-(2H-tetrazol-5-yl)phenyl]amino}propyl]-2-methyl-N-(piperidin-4-yl)biphenyl-4-carboxamide] | 1.7 | 0.07 |
| Cc1cc(C(=O)NC2CCCNC2=O)ccc1-c1ccc(C[C@H](NC(=O)[C@H]2CC[C@H](CN)CC2)C(=O)Nc2ccc(-c3nc(C(F)(F)C(F)(F)C(F)(F)F)n[nH]3)cc2)cc1 (stereo partly drawn) [Example 88, 4′-[(2S)-2-({[trans-4-(Aminomethyl)cyclohexyl]carbonyl}amino)-3-({4-[3-(heptafluoropropyl)-1H-1,2,4-triazol-5-yl]phenyl}amino)-3-oxopropyl]-2-methyl-N-(2-oxopiperidin-3-yl)biphenyl-4-carboxamide hydrochloride] | 2.1 | 0.31 |
| NC[C@H]1CC[C@H](C(=O)N[C@@H](Cc2ccc(-c3ccc(C(=O)NC4CCNCC4)cc3)cc2)C(=O)Nc2ccc(-c3nn[nH]n3)cc2)CC1 [Example 37, 4′-[(2S)-2-({[trans-4-(Aminomethyl)cyclohexyl]carbonyl}amino)-3-oxo-3-{[4-(2H-tetrazol-5-yl)phenyl]amino}propyl]-N-(piperidin-4-yl)biphenyl-4-carboxamide hydrochloride] | 8.5 | 0.12 |
| Cc1cc(C(=O)NC2CCN(C)CC2)ccc1-c1ccc(C[C@H](NC(=O)[C@H]2CC[C@H](CN)CC2)C(=O)Nc2ccc(-c3nn[nH]n3)cc2)cc1 [Example 42, 4′-[(2S)-2-({[trans-4-(Aminomethyl)cyclohexyl]carbonyl}amino)-3-oxo-3-{[4-(2H-tetrazol-5-yl)phenyl]amino}propyl]-2-methyl-N-(1-methylpiperidin-4-yl)biphenyl-4-carboxamide hydrochloride] | 3.6 | 0.1 |
| Cc1cc(C(=O)NC2CCC(N(C)C)CC2(C)C)ccc1-c1ccc(C[C@H](NC(=O)[C@H]2CC[C@H](CN)CC2)C(=O)Nc2ccc(-c3nnn[nH]3)cc2)cc1 (stereo partly drawn) [Example 144, 4′-[(2S)-2-({[trans-4-(Aminomethyl)cyclohexyl]carbonyl}amino)-3-oxo-3-{[4-(1H-tetrazol-5-yl)phenyl]amino}propyl]-N-[4-(dimethylamino)-2,2-dimethylcyclohexyl]-2-methylbiphenyl-4-carboxamide hydrochloride] | 1.8 | 0.06 |
| Cc1cc(C(=O)N[C@H]2CCNC2)ccc1-c1ccc(C[C@H](NC(=O)[C@H]2CC[C@H](CN)CC2)C(=O)Nc2ccc(-c3nnc(C(F)(F)C(F)(F)C(=O)O)[nH]3)cc2)cc1 [Example 153, 3-[5-(4-{[(2S)-2-({[trans-4-(Aminomethyl)cyclohexyl]carbonyl}amino)-3-{2′-methyl-4′-[(3S)-pyrrolidin-3-ylcarbamoyl]biphenyl-4-yl}propanoyl]amino}phenyl)-4H-1,2,4-triazol-3-yl]-2,2,3,3-tetrafluoropropanoic acid hydrochloride] | 1.8 | 0.08 |
| Cc1cc(C(=O)NC2CCNCC2)ccc1-c1ccc(C[C@H](NC(=O)[C@H]2CC[C@H](CN)CC2)C(=O)Nc2ccc3[nH]c(C(F)(F)C(F)(F)C(F)(F)C(=O)O)nc3c2)cc1 [Example 65, 4-[5-({(2S)-2-({[trans-4-(Aminomethyl)cyclohexyl]carbonyl}amino)-3-[2′-methyl-4′-(piperidin-4-ylcarbamoyl)biphenyl-4-yl]propanoyl}amino)-1H-benzimidazol-2-yl]-2,2,3,3,4,4-hexafluorobutanoic acid hydrochloride] | 26 | 0.48 |
| Cc1cc(C(=O)N(C)C2CCN(C)CC2)ccc1-c1ccc(C[C@H](NC(=O)[C@H]2CC[C@H](CN)CC2)C(=O)Nc2ccc(-c3nnc(C(F)(F)C(F)(F)C(=O)O)[nH]3)cc2)cc1 [Example 113, 3-[5-(4-{[(2S)-2-({[trans-4-(Aminomethyl)cyclohexyl]carbonyl}amino)-3-{2′-methyl-4′-[methyl(1-methylpiperidin-4-yl)carbamoyl]biphenyl-4-yl}propanoyl]amino}phenyl)-4H-1,2,4-triazol-3-yl]-2,2,3,3-tetrafluoropropanoic acid hydrochloride] | 4.9 | 0.07 |
